Experimental data taken from patent US20020123056A1 (priority 2000, published 2002).

Key:
SGK2 [1] = format: biochemical, human
SGK2 [2] = biological target: T1, SGK2 (Homo sapiens, UniProt Q9HBY8); format: biochemical
T1 sequence (Q9HBY8 whole entry, looked up): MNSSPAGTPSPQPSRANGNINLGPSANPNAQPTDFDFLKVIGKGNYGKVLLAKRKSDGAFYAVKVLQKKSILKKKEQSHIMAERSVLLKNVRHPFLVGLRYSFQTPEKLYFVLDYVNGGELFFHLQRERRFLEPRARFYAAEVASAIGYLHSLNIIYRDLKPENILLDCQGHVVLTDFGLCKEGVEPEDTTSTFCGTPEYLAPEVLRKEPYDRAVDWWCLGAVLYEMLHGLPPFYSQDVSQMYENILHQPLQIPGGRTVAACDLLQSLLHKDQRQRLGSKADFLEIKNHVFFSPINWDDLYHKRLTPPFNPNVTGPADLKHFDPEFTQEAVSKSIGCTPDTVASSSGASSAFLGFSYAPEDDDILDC

COC[C@@H]([C@H](O)[C@H](O)C(=O)NCC[C@H](C)c1nc(/C=C/C[C@@H]2O[C@]3(C[C@@H](O)[C@@H]2C)O[C@H]([C@H](C[C@H](O)[C@H](C)[C@H](O)[C@H](C)/C=C(C)/C(C)=C/C=C/C(C)=C\C#N)OC)[C@H](OP(=O)(O)O)C3(C)C)co1)N(C)C [Calyculin A]
effect on SGK2 kinase activity (SGK2 [1]): stimulated SGK2 kinase activity

KTFCGTPEYLAPEVRREPRILSEEEQEMFRDFDYI [PDK1 peptide]
incorporation of 32P into peptide substrate (SGK2 [2]): no significant incorporation

C=C1[C@@H](O)[C@@H]2O[C@]3(CC[C@H](/C=C/[C@@H](C)[C@@H]4CC(C)=C[C@@]5(O[C@H](C[C@@](C)(O)C(=O)O)CC[C@H]5O)O4)O3)CC[C@H]2O[C@@H]1[C@@H](O)C[C@H](C)[C@H]1O[C@@]2(CCCCO2)CC[C@H]1C [Okadaic Acid]
effect on SGK2 kinase activity (SGK2 [1]): stimulated SGK2 kinase activity

CKRPRAASFAE [PKB-sub]
incorporation of 32P into peptide substrate (SGK2 [2]): significant incorporation
